# Test results published in US3941850A, “α,α,α',α'-TETRAKIS(4-HYDROXY-3,5-DISUBSTITUTED PHENYL)XYLENE” (The Quaker Oats Company, priority 1974, dated 1976).
# Experiments:
# [1] = Heat aging test of polypropylene film; settings: 140°C, 5 mil film, 0.1 % by weight tetraphenolic derivative, 0 synergist
# Description: A number of candidate stabilizers were incorporated in 5 mil thick samples of polypropylene film, and the resulting materials evaluated by heat aging the films. In some of the tests where indicated dilaurylthiodipropionate was added as synergist.
# In the heat aging test, polypropylene film samples 5 mil in thickness were maintained in an oven at 140°C. Each sample was tested for loss of structural integrity. The number of hours shown in the table are the total elapsed hours before the film cracked or embrittled when flexed. The film was embrittled when it crumbled to a powder.
# [2] = Solubility in ethanol and toluene; format: physicochemical; settings: 27°C
# [3] = Antioxidant evaluation in cis-polyisoprene (IR carbonyl band, film in oven); settings: 130°C oven, 0.100 g antioxidant, until carbonyl band exceeded 6 cm
# Description: A number of candidate antioxidants were evaluated in cis-polyisoprene. Cis-polyisoprene was cut up into small pieces and dissolved overnight in a rapidly stirred solution of 500 ml of toluene. If the antioxidant was readily soluble in toluene, 0.100 g was then added to the cis-polyisoprenetoluene solution and stirred until it dissolved. If the antioxidant was not readily soluble in toluene it was dissolved in a small amount of an appropriate solvent and then added to the toluene solution. A sample of the solution was then taken up in a capillary dropper and 15 drops were placed on a circular sodium chloride plate, 1 inch in diameter. The plate was then put in a 130°C. oven for a few minutes to evaporate the toluene.
# An infrared spectrum was run of the film on the plate. The plate was then put back in the oven. Every hour it was removed and another infrared spectrum was run. This procedure was repeated until appreciable oxidation had taken place as indicated by the appearance of a carbonyl band at 1700-1750 cm^^-1. The test was ended when the carbonyl band exceded 6 cm on a Perkin Elmer Infrared Spectophotometer, Model 710. This length is approximately equal to the length of the peak at 1450 cm^^-1.
smiles,measurement,setting,value
Cc1cc(C(c2ccc(C(c3cc(C)c(O)c(C)c3)c3cc(C)c(O)c(C)c3)cc2)c2cc(C)c(O)c(C)c2)cc(C)c1O [Test 24],"Oven Hours, Cracked",[1],31 h
same,"Oven Hours, Embrittled",[1],31 h
Cc1cc(C(c2ccc(C(c3cc(C)c(O)c(C(C)(C)C)c3)c3cc(C)c(O)c(C(C)(C)C)c3)cc2)c2cc(C)c(O)c(C(C)(C)C)c2)cc(C(C)(C)C)c1O [Test 30],"Solubility, Ethanol",[2],> 9 g/100 ml
same,"Solubility, Toluene",[2],> 9 g/100 ml
Cc1cc(O)c(C(C)(C)C)cc1C(c1ccc(C(c2cc(C(C)(C)C)c(O)cc2C)c2cc(C(C)(C)C)c(O)cc2C)cc1)c1cc(C(C)(C)C)c(O)cc1C [Test 31],"Solubility, Ethanol",[2],> 9 g/100 ml
same,"Solubility, Toluene",[2],< .17 g/100 ml
Cc1cc(C(c2ccc(C(c3cc(C)c(O)c(C)c3)c3cc(C)c(O)c(C)c3)cc2)c2cc(C)c(O)c(C)c2)cc(C)c1O [Test 12],Maximum Protection,[3],8 h
CC(C)Cc1cc(C(c2ccc(C(c3cc(CC(C)C)c(O)c(CC(C)C)c3)c3cc(CC(C)C)c(O)c(CC(C)C)c3)cc2)c2cc(CC(C)C)c(O)c(CC(C)C)c2)cc(CC(C)C)c1O [Test 18],Maximum Protection,[3],6 h
Cc1ccc(Cc2cc(C(c3ccc(C(c4cc(Cc5ccc(C)cc5)c(O)c(Cc5ccc(C)cc5)c4)c4cc(Cc5ccc(C)cc5)c(O)c(Cc5ccc(C)cc5)c4)cc3)c3cc(Cc4ccc(C)cc4)c(O)c(Cc4ccc(C)cc4)c3)cc(Cc3ccc(C)cc3)c2O)cc1 [Test 22],Maximum Protection,[3],6 h
CCCCC(CC)Cc1cc(C(c2ccc(C(c3cc(CC(CC)CCCC)c(O)c(CC(CC)CCCC)c3)c3cc(CC(CC)CCCC)c(O)c(CC(CC)CCCC)c3)cc2)c2cc(CC(CC)CCCC)c(O)c(CC(CC)CCCC)c2)cc(CC(CC)CCCC)c1O (centres unmarked) [Test 20],Maximum Protection,[3],3 h
Cc1cc(C(c2ccc(C(c3cc(C)c(O)cc3C)c3cc(C)c(O)cc3C)cc2)c2cc(C)c(O)cc2C)c(C)cc1O [Test 29],"Solubility, Ethanol",[2],< .14 g/100 ml
same,"Solubility, Toluene",[2],< .17 g/100 ml
Oc1c(Cc2ccccc2)cc(C(c2ccc(C(c3cc(Cc4ccccc4)c(O)c(Cc4ccccc4)c3)c3cc(Cc4ccccc4)c(O)c(Cc4ccccc4)c3)cc2)c2cc(Cc3ccccc3)c(O)c(Cc3ccccc3)c2)cc1Cc1ccccc1 [Test 21],Maximum Protection,[3],7 h
Cc1cc(C(c2ccc(C(c3cc(C)c(O)c(C(C)(C)C)c3)c3cc(C)c(O)c(C(C)(C)C)c3)cc2)c2cc(C)c(O)c(C(C)(C)C)c2)cc(C(C)(C)C)c1O [Test 14],Maximum Protection,[3],13 h
Cc1cc(O)c(C(C)(C)C)cc1C(c1ccc(C(c2cc(C(C)(C)C)c(O)cc2C)c2cc(C(C)(C)C)c(O)cc2C)cc1)c1cc(C(C)(C)C)c(O)cc1C [Test 15],Maximum Protection,[3],6 h
CC(C)c1cc(C(c2ccc(C(c3cc(C(C)C)c(O)c(C(C)C)c3)c3cc(C(C)C)c(O)c(C(C)C)c3)cc2)c2cc(C(C)C)c(O)c(C(C)C)c2)cc(C(C)C)c1O [Test 16],Maximum Protection,[3],7 h
Cc1cc(C(c2ccc(C(c3cc(C)c(O)cc3C)c3cc(C)c(O)cc3C)cc2)c2cc(C)c(O)cc2C)c(C)cc1O [Test 26],"Oven Hours, Cracked",[1],30 h
same,"Oven Hours, Embrittled",[1],30 h
Cc1cc(C(c2ccc(C(c3cc(C)c(O)cc3C)c3cc(C)c(O)cc3C)cc2)c2cc(C)c(O)cc2C)c(C)cc1O [Test 13],Maximum Protection,[3],3 h
CCC(C)c1cc(C(c2ccc(C(c3cc(C(C)CC)c(O)c(C(C)CC)c3)c3cc(C(C)CC)c(O)c(C(C)CC)c3)cc2)c2cc(C(C)CC)c(O)c(C(C)CC)c2)cc(C(C)CC)c1O (centres unmarked) [Test 17],Maximum Protection,[3],7 h
CC(C)(C)c1cc(C(c2ccc(C(c3cc(C(C)(C)C)c(O)c(C(C)(C)C)c3)c3cc(C(C)(C)C)c(O)c(C(C)(C)C)c3)cc2)c2cc(C(C)(C)C)c(O)c(C(C)(C)C)c2)cc(C(C)(C)C)c1O [Test 19],Maximum Protection,[3],16 h
Cc1cc(C(c2ccc(C(c3cc(C)c(O)c(C)c3)c3cc(C)c(O)c(C)c3)cc2)c2cc(C)c(O)c(C)c2)cc(C)c1O [Test 28],"Solubility, Ethanol",[2],3 g/100 ml
same,"Solubility, Toluene",[2],< .17 g/100 ml
